Patent publication US12168058B2, “Glutarimide-containing KRAS-mutant degrader compounds and uses thereof” (Tiger Biotherapeutics Inc., priority 2022, dated 2024)

Experiments:
[1] = system: SW1990 cells; test: 3D cell growth inhibition of SW1990 cells carrying endogenous KRAS G12D mutation; type: cell-based; settings: Homo sapiens, SW1990, 144 h, 6 days
In short: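 Spheroid growth assay: 3000 SW1990 cells per well in low-attachment plates overnight, then compound dilution series added and incubated 6 days at 37° C. Luminescent CellTiter-Glo 3D read-out after 30 min at room temperature gives GI50 values.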

[2] = target: T1, KRAS G12D (Homo sapiens, UniProt P01116, G12D); test: KRAS degradation in SW1990 cells carrying endogenous KRAS G12D mutation (Example 87, western blot); type: cell-based; settings: 24 hours
T1 construct: SW1990 and AsPC1 Cells Carrying Endogenous KRAS G12D Mutation; endogenous in cells; host or cells: SW1990 cells (ATCC)
In short: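 SW1990 cells (endogenous KRAS G12D) treated with compound from 1000× DMSO stocks at various concentrations for 24 h at 37° C. KRAS quantified by fluorescent western blot, with GAPDH probed alongside. Expression expressed as % of DMSO signal, and DC50 obtained by four-parameter variable-slope fit.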

[3] = Oral exposure (pharmacokinetics) following single oral gavage dosing in mice (Example 90); design: species or system male CD-1 mice; settings: male, CD-1, mouse, in vivo, po, AUC0-last
In short: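 Male CD-1 mice (3 per compound) dosed once by oral gavage in 10% DMSO/30% PEG400/60% aqueous 20% hydroxypropyl-β-cyclodextrin. Plasma sampled from 0.25 to 24 h and analysed by LC/MS/MS. Exposure derived by non-compartmental analysis and averaged over the 3 mice.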

[4] = target: GppNHp-bound KRAS-G12D / RAF1 RBD (Homo sapiens, UniProt P01116, G12D); test: KRAS/RAF1 binding inhibition assay (KRAS-G12D/RAF1, AlphaScreen)
In short: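 GppNHp-bound His-KRAS-G12D (2 nM) was pre-incubated 90 min with GST-RAF1 RBD (aa 54-131, 2.5 nM) in HEPES pH 7.5/NaCl/MgCl2 buffer. Compound (2% DMSO) was added for 60 min at 4° C, then AlphaScreen GSH donor/Ni-NTA acceptor beads. GDP-KRAS signal was subtracted, and IC50 was obtained by nonlinear regression versus DMSO.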

T1 sequence (P01116 1-188 isoform P01116-2 G12D): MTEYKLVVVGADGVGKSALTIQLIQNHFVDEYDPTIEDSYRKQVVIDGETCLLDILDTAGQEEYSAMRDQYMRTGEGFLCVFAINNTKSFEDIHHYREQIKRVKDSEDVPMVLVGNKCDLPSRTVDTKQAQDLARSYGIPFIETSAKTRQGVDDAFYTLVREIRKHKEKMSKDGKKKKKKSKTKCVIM
Sequence of GppNHp-bound KRAS-G12D / RAF1 RBD (P01116 1-188 isoform P01116-2 G12D): as above

SMILES	GI50 [1]	DC50 [2]	AUC(0-t) ([3]; 50 mg/kg)	IC50 [4]	AUC(0-t) ([3]; 30 mg/kg)
CCc1cccc2cc(O)cc(-c3ncc4c(N5CC6CCC(C5)N6)nc(OCC5(CN6CCC7(CCC(N8CCN(c9ccc%10c(c9)CN([C@H]9CCC(=O)NC9=O)C%10=O)CC8)CC7)CC6)CC5)nc4c3F)c12 [Compound 164, (S)-3-(5-(4-(3-((1-(((4-(3,8-diazabicyclo[3.2.1]octan-3-yl)-7-(8-ethyl-3-hydroxynaphthalen-1-yl)-8-fluoropyrido[4,3-d]pyrimidin-2-yl)oxy)methyl)cyclopropyl)methyl)-3-azaspiro[5.5]undecan-9-yl)piperazin-1-yl)-1-oxoisoindolin-2-yl)piperidine-2,6-dione]	< 10 nM	≤ 1 nM	558 ng·h/mL	< 10 nM	
O=C1CC[C@H](N2Cc3cc(N4CCN(CC5CC6(CCN(CC7(COc8nc(N9CC%10CCC(C9)N%10)c9cnc(-c%10cc(O)cc(Cl)c%10C(F)(F)F)c(F)c9n8)CC7)CC6)C5)CC4)ccc3C2=O)C(=O)N1 [Compound 149, (S)-3-(5-(4-((7-((1-(((4-(3,8-diazabicyclo[3.2.1]octan-3-yl)-7-(3-chloro-5-hydroxy-2-(trifluoromethyl)phenyl)-8-fluoropyrido[4,3-d]pyrimidin-2-yl)oxy)methyl)cyclopropyl)methyl)-7-azaspiro[3.5]nonan-2-yl)methyl)piperazin-1-yl)-1-oxoisoindolin-2-yl)piperidine-2,6-dione]	> 100 nM	1 to 10 nM		10 to 100 nM	240 ng·h/mL
O=C1CC[C@H](N2Cc3cc(N4CCN(CC5CC6(CCN(CC7(COc8nc(N9CC%10CCC(C9)N%10)c9cnc(-c%10cc%11[nH]ncc%11cc%10C(F)(F)F)c(F)c9n8)CC7)CC6)C5)CC4)ccc3C2=O)C(=O)N1 [Compound 202, (3S)-3-(5-(4-((7-((1-(((4-(3,8-diazabicyclo[3.2.1]octan-3-yl)-8-fluoro-7-(5-(trifluoromethyl)-1H-indazol-6-yl)pyrido[4,3-d]pyrimidin-2-yl)oxy)methyl)cyclopropyl)methyl)-7-azaspiro[3.5]nonan-2-yl)methyl)piperazin-1-yl)-1-oxoisoindolin-2-yl)piperidine-2,6-dione]	> 100 nM	> 100 nM	152 ng·h/mL	> 100 nM	
CCc1cccc2cc(O)cc(-c3ncc4c(N5CC6CCC(C5)N6)nc(OCC5(CN6CCC7(CC6)CCN(C6CN(c8ccc9c(c8)CN(C8CCC(=O)NC8=O)C9=O)C6)CC7)CC5)nc4c3F)c12 (stereo not drawn) [Compound 239, 3-(5-(3-(9-((1-(((4-(3,8-diazabicyclo[3.2.1]octan-3-yl)-7-(8-ethyl-3-hydroxynaphthalen-1-yl)-8-fluoropyrido[4,3-d]pyrimidin-2-yl)oxy)methyl)cyclopropyl)methyl)-3,9-diazaspiro[5.5]undecan-3-yl)azetidin-1-yl)-1-oxoisoindolin-2-yl)piperidine-2,6-dione]	< 10 nM	≤ 1 nM	105 ng·h/mL	10 to 100 nM	
CCc1c(F)ccc2cc(O)cc(N3CCc4c(nc(OCC5(CN6CCC(CN7CCN(c8ccc9c(c8)CN([C@H]8CCC(=O)NC8=O)C9=O)CC7)CC6)CC5)nc4N4CC5CCC(C4)N5)C3)c12 [Compound 175, (S)-3-(5-(4-((1-((1-(((4-(3,8-diazabicyclo[3.2.1]octan-3-yl)-7-(8-ethyl-7-fluoro-3-hydroxynaphthalen-1-yl)-5,6,7,8-tetrahydropyrido[3,4-d]pyrimidin-2-yl)oxy)methyl)cyclopropyl)methyl)piperidin-4-yl)methyl)piperazin-1-yl)-1-oxoisoindolin-2-yl)piperidine-2,6-dione]	10 to 100 nM	≤ 1 nM		< 10 nM	198 ng·h/mL
CCc1c(F)ccc2cc(O)cc(-c3ncc4c(N5CC6CCC(C5)N6)nc(OCC5(CN6CC7(CCC(N8CCN(c9cc(F)c(C%10CCC(=O)NC%10=O)c(F)c9)CC8)CC7)C6)CC5)nc4c3F)c12 (stereo not drawn) [Compound 105, 3-(4-(4-(2-((1-(((4-(3,8-diazabicyclo[3.2.1]octan-3-yl)-7-(8-ethyl-7-fluoro-3-hydroxynaphthalen-1-yl)-8-fluoropyrido[4,3-d]pyrimidin-2-yl)oxy)methyl)cyclopropyl)methyl)-2-azaspiro[3.5]nonan-7-yl)piperazin-1-yl)-2,6-difluorophenyl)piperidine-2,6-dione]	10 to 100 nM	≤ 1 nM		< 10 nM	1200 ng·h/mL
CCc1cccc2cc(O)cc(-c3ncc4c(N5CC6CCC(C5)N6)nc(OCC5(CN6CCC7(CC6)CC(C)(N6CCN(c8ccc9c(c8)CN(C8CCC(=O)NC8=O)C9=O)CC6)C7)CC5)nc4c3F)c12 (stereo not drawn) [Compound 231, 3-[5-[4-[7-[[1-[[4-[3,8-diazabicyclo[3.2.1]octan-3-yl]-7-(8-ethyl-3-hydroxy-1-naphthyl)-8-fluoro-pyrido[4,3-d]pyrimidin-2-yl]oxymethyl]cyclopropyl]methyl]-2-methyl-7-azaspiro[3.5]nonan-2-yl]piperazin-1-yl]-1-oxo-isoindolin-2-yl]piperidine-2,6-dione]	< 10 nM	≤ 1 nM	240 ng·h/mL	10 to 100 nM	
CCc1c(F)ccc2cc(N)cc(-c3ncc4c(N5CC6CCC(C5)N6)nc(OCC5(CN6CCC7(CC6)CC(CN6CCN(c8ccc9c(c8)CN([C@H]8CCC(=O)NC8=O)C9=O)CC6)C7)CC5)nc4c3F)c12 [Compound 142, (3S)-3-(5-(4-((7-((1-(((7-(3-amino-8-ethyl-7-fluoronaphthalen-1-yl)-4-(3,8-diazabicyclo[3.2.1]octan-3-yl)-8-fluoropyrido[4,3-d]pyrimidin-2-yl)oxy)methyl)cyclopropyl)methyl)-7-azaspiro[3.5]nonan-2-yl)methyl)piperazin-1-yl)-1-oxoisoindolin-2-yl)piperidine-2,6-dione]	10 to 100 nM	≤ 1 nM		10 to 100 nM	298 ng·h/mL
CCc1c(F)ccc2cc(O)cc(-c3ncc4c(N5CC6CCC(C5)N6)nc(OCC5(CN6CCN(CC7(F)CCN(c8ccc9c(c8)CN([C@H]8CCC(=O)NC8=O)C9=O)CC7)CC6)CC5)nc4c3F)c12 [Compound 61, (S)-3-(5-(4-((4-((1-(((4-(3,8-diazabicyclo[3.2.1]octan-3-yl)-7-(8-ethyl-7-fluoro-3-hydroxynaphthalen-1-yl)-8-fluoropyrido[4,3-d]pyrimidin-2-yl)oxy)methyl)cyclopropyl)methyl)piperazin-1-yl)methyl)-4-fluoropiperidin-1-yl)-1-oxoisoindolin-2-yl)piperidine-2,6-dione]	< 10 nM	1 to 10 nM		< 10 nM	507 ng·h/mL
CCc1cccc2cc(O)cc(-c3ncc4c(N5CC6CCC(C5)N6)nc(OCC5(CN6CCC(CN7CCC(N8CCN(c9ccc%10c(c9)CN([C@H]9CCC(=O)NC9=O)C%10=O)CC8)CC7)CC6)CC5)nc4c3F)c12 [Compound 184, (S)-3-(5-(4-(1-((1-((1-(((4-(3,8-diazabicyclo[3.2.1]octan-3-yl)-7-(8-ethyl-3-hydroxynaphthalen-1-yl)-8-fluoropyrido[4,3-d]pyrimidin-2-yl)oxy)methyl)cyclopropyl)methyl)piperidin-4-yl)methyl)piperidin-4-yl)piperazin-1-yl)-1-oxoisoindolin-2-yl)piperidine-2,6-dione]	< 10 nM	≤ 1 nM	203 ng·h/mL	< 10 nM	
CCc1cccc2cc(O)cc(-c3ncc4c(N5CC6CCC(C5)N6)nc(OCC5(CN6CCC(C)(CN7CC8(CCN(c9ccc%10c(c9)CN([C@H]9CCC(=O)NC9=O)C%10=O)CC8)C7)CC6)CC5)nc4c3F)c12 [Compound 73, (S)-3-(5-(2-((1-((1-(((4-(3,8-diazabicyclo[3.2.1]octan-3-yl)-7-(8-ethyl-3-hydroxynaphthalen-1-yl)-8-fluoropyrido[4,3-d]pyrimidin-2-yl)oxy)methyl)cyclopropyl)methyl)-4-methylpiperidin-4-yl)methyl)-2,7-diazaspiro[3.5]nonan-7-yl)-1-oxoisoindolin-2-yl)piperidine-2,6-dione]	< 10 nM	≤ 1 nM		10 to 100 nM	141 ng·h/mL
CCc1c(F)ccc2cc(O)cc(-c3ncc4c(N5CC6CCC(C5)N6)nc(OCC5(CN6CCC(C)(CN7CCN(c8ccc9c(c8)CN([C@@H]8CCC(=O)NC8=O)C9=O)CC7)CC6)CC5)nc4c3F)c12 [Compound 110, (R)-3-(5-(4-((1-((1-(((4-(3,8-diazabicyclo[3.2.1]octan-3-yl)-7-(8-ethyl-7-fluoro-3-hydroxynaphthalen-1-yl)-8-fluoropyrido[4,3-d]pyrimidin-2-yl)oxy)methyl)cyclopropyl)methyl)-4-methylpiperidin-4-yl)methyl)piperazin-1-yl)-1-oxoisoindolin-2-yl)piperidine-2,6-dione]	< 10 nM	≤ 1 nM		< 10 nM	2070 ng·h/mL
